Read-outs that look alike come from different tables or passages of the source. Square brackets hold non-standard residues; d marks the D form. Peptide text beside a SMILES is read from it. * marks the point of attachment. X1 = O=C(O)CC[C@H](NC(=O)N[C@@H](CCCCNC(=O)CCCCCCC(=O)*)C(=O)O)C(=O)O; d2Nal = N[C@H](Cc1ccc2ccccc2c1)C(=O)O; Mercaptoacetyl = O=C(CS)*
Experiments:
PSMA = PSMA (Homo sapiens, UniProt Q04609); assay: Competitive binding (IC50) on LNCaP cells with ([^125I]I-BA)KuE as radioligand; conditions: for IC50: LNCaP cells, ([^125I]I-BA)KuE radioligand, free mas3-chelator
PSMA, sequence (Q04609 whole entry): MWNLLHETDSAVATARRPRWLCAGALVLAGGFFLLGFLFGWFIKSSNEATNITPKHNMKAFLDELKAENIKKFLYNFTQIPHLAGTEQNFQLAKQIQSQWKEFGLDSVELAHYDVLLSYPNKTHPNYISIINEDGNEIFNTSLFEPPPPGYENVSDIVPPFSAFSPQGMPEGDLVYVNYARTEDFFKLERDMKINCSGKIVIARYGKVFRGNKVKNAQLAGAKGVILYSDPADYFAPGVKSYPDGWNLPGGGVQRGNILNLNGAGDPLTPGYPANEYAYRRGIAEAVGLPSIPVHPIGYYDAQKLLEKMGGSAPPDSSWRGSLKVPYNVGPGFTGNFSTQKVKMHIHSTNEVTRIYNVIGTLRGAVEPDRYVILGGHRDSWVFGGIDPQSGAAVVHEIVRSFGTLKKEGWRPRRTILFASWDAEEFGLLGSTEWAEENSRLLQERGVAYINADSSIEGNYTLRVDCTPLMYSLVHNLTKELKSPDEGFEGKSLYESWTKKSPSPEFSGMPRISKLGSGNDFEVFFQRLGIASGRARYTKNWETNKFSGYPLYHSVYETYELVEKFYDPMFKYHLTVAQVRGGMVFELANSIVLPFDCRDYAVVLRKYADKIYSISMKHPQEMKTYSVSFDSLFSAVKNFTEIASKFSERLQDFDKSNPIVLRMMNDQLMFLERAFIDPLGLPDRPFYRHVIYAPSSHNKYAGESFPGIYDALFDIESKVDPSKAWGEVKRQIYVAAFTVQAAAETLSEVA
Method: Competitive binding experiments (IC50) were carried out in accordance with an established protocol using PSMA-expressing LNCaP cells and ([^125I]I-BA)KuE as standard radioligand. […] Please see the Supplementary Material for experimental details. For IC50 determination, approximately 150.000 cells/well were seeded on 24-well plates one day prior to the experiment. For internalization studies, 125.000 cells/well in PDL-coated 24-well plates were used. Cell counting was carried out using a Corning cell counter (Cytosmart, Eindhoven, The Netherlands).

[1] = cited from earlier work
[2] = tested on: PSMA expressing LNCaP cells; assay: Dual tracer internalization assay; type: cell-based, human; conditions: 60 min, 37 °C, 0.5 nM tracer, normalized to ([^125I]IBA)KuE
Method: Competitive binding experiments (IC50) were carried out in accordance with an established protocol using PSMA-expressing LNCaP cells and ([^125I]I-BA)KuE as standard radioligand. […] Please see the Supplementary Material for experimental details. […] The supernatant was removed, cells were washed with assay medium, and an acid wash (50 mM NaOAc in saline, pH 4.5) was performed to remove membrane-associated activity. Cells were then lysed using 1N NaOH, and internalized activity was quantified using a γ-counter. […] Tocris Bioscience, Bristol, UK) and normalized to the specific internalization observed for the radioiodinated reference compound in the same experiment. Data represent means ± SD (n=3) from three separate determinations.

mouse serum = assay: Plasma protein binding (B50), ultrafiltration, mouse serum; type: in vitro ADME
Method: (§1) A detailed experimental procedure is provided in the Supplementary Material. […] Briefly, protein solutions (maximum concentration: […] Samples were briefly vortexed and incubated for 30 min at 37 °C. […] The filter units were then removed from the centrifugal tubes and washed twice with 300 µL PBS to recover the protein fraction. The activity in the filtrate, filter and protein fraction were then quantified using a γ-counter. […] The percentages of radioligand bound to the respective proteins are represented as means ± standard deviation (SD) of three independent experiments.

human serum = assay: Plasma protein binding (B50), ultrafiltration, human serum; type: in vitro ADME
Method: as §1

[3] = Lipophilicity, modified shake-flask method; type: physicochemical
Method: The lipophilicity of [^99mTc]Tc-PSMA-HSG was determined via a modified shake-flask method as described.

[4] = target: human serum albumin (HSA) (Homo sapiens, UniProt P02768); assay: Plasma protein binding (B50), ultrafiltration, HSA; type: in vitro ADME
human serum albumin (HSA), sequence (P02768 25-609): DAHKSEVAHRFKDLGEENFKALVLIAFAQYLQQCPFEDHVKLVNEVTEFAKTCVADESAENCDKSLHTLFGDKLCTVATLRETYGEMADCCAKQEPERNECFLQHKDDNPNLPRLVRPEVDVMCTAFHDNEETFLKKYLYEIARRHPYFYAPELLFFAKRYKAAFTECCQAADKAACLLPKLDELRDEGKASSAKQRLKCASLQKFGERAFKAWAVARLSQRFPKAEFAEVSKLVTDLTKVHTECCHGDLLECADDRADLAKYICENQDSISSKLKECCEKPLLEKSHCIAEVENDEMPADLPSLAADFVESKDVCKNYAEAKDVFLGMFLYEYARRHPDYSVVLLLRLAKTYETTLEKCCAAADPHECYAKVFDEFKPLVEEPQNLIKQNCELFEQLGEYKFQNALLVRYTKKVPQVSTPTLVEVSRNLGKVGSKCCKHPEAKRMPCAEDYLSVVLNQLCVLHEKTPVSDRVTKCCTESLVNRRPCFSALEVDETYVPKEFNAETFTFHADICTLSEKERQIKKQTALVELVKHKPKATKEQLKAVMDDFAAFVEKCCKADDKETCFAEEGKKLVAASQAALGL
Method: as §1

[5] = tested on: LNCaP xenograft bearing NSG mice; assay: Biodistribution in LNCaP xenograft bearing NSG mice; conditions: 6 h p.i., 0.1 nmol
Method: The biodistribution of [^99mTc]Tc-PSMA-HSG and of the reference compound [^99mTc]Tc-PSMA-I&S was investigated in LNCaP xenograft bearing NSG mice (see supplemental information).
Mice were injected intravenously with the respective ^99mTc-labeled tracer (24–34 MBq (fixed peptide dose of 1 nmol/mouse) or 3.7–7.6 MBq (fixed peptide doses of 0.1 nmol/mouse), respectively) and were sacrificed at 2 h (1 nmol-cohort) or 6 h p.i. (0.1 nmol-cohort), respectively. The organs of interest were dissected, and the activity concentration in weighed tissue samples was quantified using an AMG Automatic Gamma Counter (Hidex, Turku, Finland). Biodistribution data are given in %iD/g and represent means ± SD (groups of n = 5 animals). Statistical analysis (Multiple unpaired t-test) of biodistribution data and tumor/organ ratios was performed using GraphPad Prism (Boston, USA).
To induce LNCaP tumor growth, a suspension of LNCaP cells (approx. 5 x 10^6 cells/mouse) in 200 μl of a 1:1 mixture of serum-free DMEM and Matrigel (BD Biosciences) was injected subcutaneously into the right shoulder of male NOD scid gamma (NSG) mice (6-8 weeks, in-house breeding, Dpt. of Oncology, University of Lausanne). After approximately 9 weeks, tumor size reached 4-8 mm in diameter and the mice were used for the in vivo studies.

CC(=O)SCC(=O)N[C@H](CO)C(=O)N[C@H](CO)C(=O)N[C@H](CO)C(=O)N[C@H](CCCCNC(=O)CCCCCN1/C(=C/C=C/C=C/C2=[N+](C)c3ccc(S(=O)(=O)[O-])cc3C2(C)C)C(C)(C)c2cc(S(=O)(=O)O)ccc21)C(=O)N[C@H](Cc1ccc(O)cc1)C(=O)N[C@H](Cc1ccc2ccccc2c1)C(=O)N[C@H](CCCCNC(=O)CCCCCCC(=O)NCCCC[C@H](NC(=O)N[C@@H](CCCC(=O)O)C(=O)O)C(=O)O)C(=O)O [Aad-PSMA-HSG]
decrease in PSMA affinity compared to PSMA-HSG (PSMA): fifteen-fold reduction

CCN1/C(=C/C=C/C=C/C=C/C2=[N+](CCCCCC(=O)NCCCC[C@@H](NC(=O)[C@@H](CO)NC(=O)[C@@H](CO)NC(=O)[C@@H](CO)NC(=O)CSC(C)=O)C(=O)N[C@H](Cc3ccc(O)cc3)C(=O)N[C@H](Cc3ccc4ccccc4c3)C(=O)N[C@H](CCCCNC(=O)CCCCCCC(=O)NCCCC[C@H](NC(=O)N[C@@H](CCC(=O)O)C(=O)O)C(=O)O)C(=O)O)c3ccc(S(=O)(=O)[O-])cc3C2(C)C)C(C)(C)c2cc(S(=O)(=O)O)ccc21 [PSMA-HSG-Cy7-II]
decrease in PSMA affinity compared to PSMA-HSG (PSMA): twofold decreased | IC50 (PSMA): 73.1 ± 11.1 nM

CC(=O)SCC(=O)N[C@H](CO)C(=O)N[C@H](CO)C(=O)N[C@H](CO)C(=O)N[C@H](CCCCNC(=O)CCCCC[N+]1=C(/C=C/C2=CC(=C/C=C3/N(C)c4ccc(S(=O)(=O)O)cc4C3(C)C)/CCC2)C(C)(C)c2cc(S(=O)(=O)[O-])ccc21)C(=O)N[C@H](Cc1ccc(O)cc1)C(=O)N[C@H](Cc1ccc2ccccc2c1)C(=O)N[C@H](CCCCNC(=O)CCCCCCC(=O)NCCCC[C@H](NC(=O)N[C@@H](CCC(=O)O)C(=O)O)C(=O)O)C(=O)O [PSMA-HSG-Cy7-I]
decrease in PSMA affinity compared to PSMA-HSG (PSMA): twofold decreased | IC50 (PSMA): 70.7 ± 10.8 nM

O=C(O)CC[C@H](NC(=O)N[C@@H](CCCCNC(=O)c1ccc([18F])nc1)C(=O)O)C(=O)O [[^18F]DCFPyL]
effective dose ([1]; patients): 0.0165 mSv/MBq

O=C([O-])CN(CCN(CC(=O)[O-])Cc1cc(CCC(=O)NCCCCCC(=O)NCCCC[C@H](NC(=O)N[C@@H](CCC(=O)O)C(=O)O)C(=O)O)ccc1[O-])Cc1cc(CCC(=O)O)ccc1[O-].[68Ga+3].[OH3+] [[^68Ga]Ga-PSMA-11]
effective dose ([1]; human, in vivo): 0.023 ± 0.004 mSv/MBq

C[N+]1=C(/C=C/C2=CC(=C/C=C3/N(CCCCCC(=O)NCCCC[C@@H](NC(=O)[C@@H](CO)NC(=O)[C@@H](CO)NC(=O)[C@@H](CO)NC(=O)CS)C(=O)N[C@H](Cc4ccc(O)cc4)C(=O)N[C@H](Cc4ccc5ccccc5c4)C(=O)N[C@H](CCCCNC(=O)CCCCCCC(=O)NCCCC[C@H](NC(=O)N[C@@H](CCC(=O)O)C(=O)O)C(=O)O)C(=O)O)c4ccc(S(=O)(=O)[O-])cc4C3(C)C)/CCC2)C(C)(C)c2cc(S(=O)(=O)O)ccc21 [[^99mTc]Tc-PSMA-HSG-Cy7-I, metal not drawn]
internalization [% of reference] [2]: 17 ± 2 % of reference | B50 MS (mouse serum): 93 ± 16 | B50 HS (human serum): 246 ± 27 | logD [3]: -2.63 | B50 HSA [4]: 165 ± 21

CC[N+]1=C(/C=C/C=C/C=C/C=C2/N(CCCCCC(=O)NCCCC[C@@H](NC(=O)[C@@H](CO)NC(=O)[C@@H](CO)NC(=O)[C@@H](CO)NC(=O)CS)C(=O)N[C@H](Cc3ccc(O)cc3)C(=O)N[C@H](Cc3ccc4ccccc4c3)C(=O)N[C@H](CCCCNC(=O)CCCCCCC(=O)NCCCC[C@H](NC(=O)N[C@@H](CCC(=O)O)C(=O)O)C(=O)O)C(=O)O)c3ccc(S(=O)(=O)[O-])cc3C2(C)C)C(C)(C)c2cc(S(=O)(=O)O)ccc21 [[^99mTc]Tc-PSMA-HSG-Cy7-II, metal not drawn]
internalization [% of reference] [2]: 28 ± 7 % of reference | B50 MS (mouse serum): 53 ± 7 | B50 HS (human serum): 121 ± 16 | logD [3]: -2.71 | B50 HSA [4]: 149 ± 14

O=C(O)CC[C@H](NC(=O)N[C@@H](CCCCNC(=O)CCCCCCC(=O)NCCCC[C@@H](NC(=O)[C@@H](Cc1ccc2ccccc2c1)NC(=O)[C@@H](Cc1ccc(O)cc1)NC(=O)[C@@H](CO)NC(=O)[C@@H](CO)NC(=O)[C@@H](CO)NC(=O)CS)C(=O)O)C(=O)O)C(=O)O [[^99mTc]Tc-PSMA-I&S, [^99mTc]Tc-mas3-y-nal-k-Sub-KuE, metal not drawn, reference compound] (Mercaptoacetyl-[dS][dS][dS][dY][d2Nal][dK](X1)-OH)
biodistribution, LNCaP tumor [5]: 12.9 ± 1.4 %iD/g | biodistribution, blood [5]: 0.15 ± 0.03 %iD/g | biodistribution, heart [5]: 0.24 ± 0.05 %iD/g | biodistribution, intestines [5]: 1.8 ± 0.8 %iD/g | biodistribution, kidneys [5]: 147.0 ± 10 %iD/g | biodistribution, liver [5]: 0.8 ± 0.4 %iD/g | biodistribution, lung [5]: 2.2 ± 0.2 %iD/g | biodistribution, muscle [5]: 0.2 ± 0.04 %iD/g | biodistribution, pancreas [5]: 0.7 ± 0.1 %iD/g | biodistribution, salivary glands [5]: 3.2 ± 0.8 %iD/g | biodistribution, spleen [5]: 14.2 ± 2.0 %iD/g | biodistribution, stomach [5]: 0.3 ± 0.1 %iD/g | B50 MS (mouse serum; mouse serum, molar excess of protein over radioligand for half-maximal binding, n = 3): 652 ± 77 | B50 HS (human serum; human serum, molar excess of protein over radioligand for half-maximal binding, n = 3): 321 ± 18 | lipophilicity [logD] [3]: −3.01 | B50 HSA ([4]; HSA in PBS, molar excess of protein over radioligand for half-maximal binding, n = 3): 324 ± 6 | absorbed dose coefficient of the urinary bladder wall ([1]; patients): 0.000355 mGy/MBq | effective dose ([1]; patients): 0.0052 mSv/MBq | kidney absorbed dose coefficient ([1]; patients): 0.0733 mGy/MBq | salivary gland absorbed dose coefficient ([1]; patients): 0.0221 mGy/MBq

From PMC13013135, “[^99mTc]Tc-PSMA-HSG for PSMA-targeted Hybrid Surgical Guidance: a new addition to the PSMA-I&S/I&T family” (European Journal of Nuclear Medicine and Molecular Imaging, 2025)
